Laboratory results published in ChEMBL document CHEMBL1138648, “Synthesis of new N-(2-(trifluoromethyl)pyridin-4-yl)anthranilic acid derivatives and their evaluation as anticancer agents” (2004).

Experiments:
Assay type in all cases: functional
M14 = experiment: Growth inhibitory activity against Melanoma M14 cell line was determined; settings: Homo sapiens
K562 = experiment: Growth inhibitory activity against Leukemia K-562 cell line was determined; settings: Homo sapiens
U-251 = experiment: Growth inhibitory activity against CNS cancer U251 cell line was determined; settings: Homo sapiens
MOLT-4 = experiment: Growth inhibitory activity against Leukemia MOLT-4 cell line was determined; settings: Homo sapiens
UACC-62 = experiment: Growth inhibitory activity against Melanoma UACC-62 cell line was determined; settings: Homo sapiens
SF-268 [1] = experiment: Growth inhibitory activity against CNS cancer SF-268 cell line was determined; settings: Homo sapiens
SF-295 = experiment: Growth inhibitory activity against CNS cancer SF-295 cell line was determined; settings: Homo sapiens
SNB-19 = experiment: Growth inhibitory activity against CNS cancer SNB-19 cell line was determined; settings: Homo sapiens
LOX IMVI = experiment: Growth inhibitory activity against Melanoma LOX IMVI cell line; settings: Homo sapiens
SK-MEL-5 = experiment: Growth inhibitory activity against Melanoma SK-MEL-5 cell line was determined; settings: Homo sapiens
ACHN = experiment: Growth inhibitory activity against Renal cancer ACHN cell line was determined; settings: Homo sapiens
HT-29 = experiment: Growth inhibitory activity against colon cancer HT-29 cell line was determined; settings: Homo sapiens
MDA-MB-435 = experiment: Growth inhibitory activity against Breast cancer MDA-MB-435 cell line was determined; settings: Homo sapiens
MDA-MB-231 = experiment: Growth inhibitory activity against Breast cancer MDA-MB-231/ATCC cell line was determined; settings: Homo sapiens
EKVX = experiment: Growth inhibitory activity against non small cell lung cancer EKVX cell line was determined; settings: Homo sapiens
NCI-H460 [2] = experiment: Growth inhibitory activity against non small cell lung cancer H460 cell line was determined; settings: Homo sapiens
NCI-H522 = experiment: Growth inhibitory activity against non small cell lung cancer H522 cell line was determined; settings: Homo sapiens
HOP-62 = experiment: Growth inhibitory activity against non small cell lung cancer HOP-62 cell line was determined; settings: Homo sapiens
NCI-H23 = experiment: Growth inhibitory activity against non small cell lung cancer NCI-H23 cell line was determined; settings: Homo sapiens
NCI-H226 = experiment: Growth inhibitory activity against non small cell lung cancer NCI-H226 cell line was determined; settings: Homo sapiens
A549 = experiment: Growth inhibitory activity against non small cell lung cancer A549/ATCC cells; settings: Homo sapiens
NCI-H322M = experiment: Growth inhibitory activity against non small cell lung cancer NCI-H322M cell line was determined; settings: Homo sapiens
HOP-92 = experiment: Growth inhibitory activity against non small cell lung cancer HOP-92 cell line was determined; settings: Homo sapiens
UACC-257 = experiment: Growth inhibitory activity against Melanoma UACC-257 cell line was determined; settings: Homo sapiens
NCI-H460 [3] = experiment: In vitro percent of proliferation of vehicle treated NCI-H460 human lung cell lines was determined at 0.0010 M concentration
KM12 = experiment: Growth inhibitory activity against colon cancer KM12 cell line was determined; settings: Homo sapiens
MCF7 [4] = experiment: Growth inhibitory activity against Breast cancer MCF-7 cell line was determined; settings: Homo sapiens
HL-60 = experiment: Growth inhibitory activity against Leukemia HL-60(TB) cell line was determined; settings: Homo sapiens
SK-MEL-28 = experiment: Growth inhibitory activity against Melanoma SK-MEL-28 cell line was determined; settings: Homo sapiens
786-0 = experiment: Growth inhibitory activity against Renal cancer 786-0 cell line was determined; settings: Homo sapiens
SN12C = experiment: Growth inhibitory activity against Renal cancer SN12C cell line was determined; settings: Homo sapiens
TK-10 = experiment: Growth inhibitory activity against Renal cancer TK-10 cell line was determined; settings: Homo sapiens
CAKI-1 = experiment: Growth inhibitory activity against Renal cancer CAKI-1 cell line was determined; settings: Homo sapiens
HCT-15 = experiment: Growth inhibitory activity against colon cancer HCT-15 cell line was determined; settings: Homo sapiens
SW-620 = experiment: Growth inhibitory activity against colon cancer SW-620 cell line was determined; settings: Homo sapiens
BT-549 = experiment: Growth inhibitory activity against Breast cancer BT-549 cell line was determined; settings: Homo sapiens
PC-3 = experiment: Growth inhibitory activity against Prostate cancer PC-3 cell line was determined; settings: Homo sapiens
RXF 393 = experiment: Growth inhibitory activity against Renal cancer RXF 393 cell line was determined; settings: Homo sapiens
HCT-116 = experiment: Growth inhibitory activity against colon cancer HCT116 cell line was determined; settings: Homo sapiens
Hs-578T = experiment: Growth inhibitory activity against Breast cancer HS 578T cell line was determined; settings: Homo sapiens
COLO 205 = experiment: Growth inhibitory activity against colon cancer COLO 205 cell line was determined; settings: Homo sapiens
OVCAR-3 = experiment: Growth inhibitory activity against Ovarian cancer OVCAR-3 cell line was determined; settings: Homo sapiens
OVCAR-5 = experiment: Growth inhibitory activity against Ovarian cancer OVCAR-5 cell line was determined; settings: Homo sapiens
OVCAR-8 = experiment: Growth inhibitory activity against Ovarian cancer OVCAR-8 cell line was determined; settings: Homo sapiens
SF-268 [5] = experiment: In vitro percent of proliferation of vehicle treated SF-268 human CNS cell lines was determined at 0.0010 M concentration
MCF7 [6] = experiment: In vitro percent of proliferation of vehicle treated MCF-7 human breast cell lines was determined at 0.0010 M concentration
SF-539 = experiment: Growth inhibitory activity against CNS cancer SF-539 cell line was determined; settings: Homo sapiens
CCRF-CEM = experiment: Growth inhibitory activity against Leukemia CCRF-CEM cell line was determined; settings: Homo sapiens
NCI/ADR-RES = experiment: Growth inhibitory activity against Breast cancer NCI/ADR-RES cell line was determined; settings: Homo sapiens
RPMI-8226 = experiment: Growth inhibitory activity against Leukemia RPMI-8226 cell line was determined; settings: Homo sapiens
SR = experiment: Growth inhibitory activity against Leukemia SR cell line was determined; settings: Homo sapiens
HCC 2998 = experiment: Growth inhibitory activity against colon cancer HCC2998 cell line was determined; settings: Homo sapiens
DU-145 = experiment: Growth inhibitory activity against Prostate cancer DU-145 cell line was determined; settings: Homo sapiens

For `O=C(Oc1c(Cl)cc(Cl)cc1Cl)c1ccccc1Nc1ccnc(C(F)(F)F)c1`, the GI50 (M14) was 2.1 µM, the GI50 (K562) was 2.4 µM and the GI50 (U-251) was 3 µM. The GI50 (MOLT-4) was 100 µM, the GI50 (UACC-62) was 1.7 µM and the GI50 (SF-268 [1]) was 3.9 µM. The GI50 (SF-295) was 4.2 µM, the GI50 (SNB-19) was 7.1 µM and the GI50 (LOX IMVI) was 2 µM. It also gave a GI50 (SK-MEL-5) of 3.1 µM, a GI50 (ACHN) of 2.4 µM and a GI50 (HT-29) of 4.6 µM. For the same compound, the GI50 (MDA-MB-435) was 1.6 µM, the GI50 (MDA-MB-231) was 3.2 µM and the GI50 (EKVX) was 3.3 µM. The GI50 (NCI-H460 [2]) was 3.4 µM, the GI50 (NCI-H522) was 5.7 µM and the GI50 (HOP-62) was 2.7 µM. It also gave a GI50 (NCI-H23) of 2.6 µM, a GI50 (NCI-H226) of 5.9 µM and a GI50 (A549) of 3.9 µM. The GI50 (NCI-H322M) was 20 µM, the GI50 (HOP-92) was 100 µM and the GI50 (UACC-257) was 12 µM. It also gave a Proliferation (NCI-H460 [3]) of 9%, a GI50 (KM12) of 4.1 µM and a GI50 (MCF7 [4]) of 4.7 µM. The GI50 (HL-60) was 3.9 µM, the GI50 (SK-MEL-28) was 24 µM and the GI50 (786-0) was 2.9 µM. It also gave a GI50 (SN12C) of 3.1 µM, a GI50 (TK-10) of 3.4 µM and a GI50 (CAKI-1) of 7.1 µM. For the same compound, the GI50 (HCT-15) was 2.7 µM, the GI50 (SW-620) was 4.6 µM and the GI50 (BT-549) was 2.4 µM. The GI50 (PC-3) was 15 µM, the GI50 (RXF 393) was 9.5 µM and the GI50 (HCT-116) was 1.7 µM. The GI50 (Hs-578T) was 2.6 µM, the GI50 (COLO 205) was 6.3 µM and the GI50 (OVCAR-3) was 4.3 µM. It also gave a GI50 (OVCAR-5) of 4.1 µM, a GI50 (OVCAR-8) of 3 µM and a Proliferation (SF-268 [5]) of 55%. It also gave a Proliferation (MCF7 [6]) of 12%.

Compound `O=C(Oc1cccc(Cl)c1)c1ccccc1Nc1ccnc(C(F)(F)F)c1` has a GI50 (M14) of 1.8 µM, a GI50 (K562) of 3.2 µM and a GI50 (MOLT-4) of 0.93 µM. The GI50 (UACC-62) was 2 µM, the GI50 (SF-268 [1]) was 3 µM and the GI50 (SF-295) was 18 µM. The GI50 (SF-539) was 2.8 µM, the GI50 (CCRF-CEM) was 0.89 µM and the GI50 (SK-MEL-5) was 2.6 µM. The GI50 (MDA-MB-435) was 3 µM, the GI50 (NCI/ADR-RES) was 2.2 µM and the GI50 (MDA-MB-231) was 1.7 µM. The GI50 (EKVX) was 22 µM, the GI50 (NCI-H460 [2]) was 11 µM and the GI50 (NCI-H522) was 4.2 µM. The GI50 (HOP-62) was 25 µM, the GI50 (NCI-H23) was 2.4 µM and the GI50 (NCI-H226) was 2.1 µM. For the same compound, the GI50 (A549) was 18 µM, the GI50 (NCI-H322M) was 23 µM and the GI50 (HOP-92) was 8.7 µM. The Proliferation (NCI-H460 [3]) was 3%, the GI50 (KM12) was 9.5 µM and the GI50 (MCF7 [4]) was 4.8 µM. The GI50 (HL-60) was 13 µM, the GI50 (RPMI-8226) was 1.8 µM and the GI50 (SR) was 0.44 µM. The GI50 (786-0) was 3.5 µM, the GI50 (SN12C) was 3 µM and the GI50 (TK-10) was 85 µM. It also gave a GI50 (CAKI-1) of 2.1 µM, a GI50 (HCT-15) of 3.7 µM and a GI50 (SW-620) of 4.4 µM. For the same compound, the GI50 (BT-549) was 6.8 µM, the GI50 (PC-3) was 7.4 µM and the GI50 (HCT-116) was 1.6 µM. It also gave a GI50 (Hs-578T) of 21 µM, a GI50 (HCC 2998) of 3.5 µM and a GI50 (OVCAR-3) of 3.8 µM. The GI50 (OVCAR-5) was 14 µM, the GI50 (OVCAR-8) was 3.5 µM and the GI50 (DU-145) was 14 µM. The Proliferation (SF-268 [5]) was 5% and the Proliferation (MCF7 [6]) was 12%.

For `COc1cccc(OC(=O)c2ccccc2Nc2ccnc(C(F)(F)F)c2)c1`, the GI50 (M14) was 1.3 µM, the GI50 (K562) was 0.74 µM and the GI50 (U-251) was 2.9 µM. It also gave a GI50 (MOLT-4) of 0.69 µM, a GI50 (UACC-62) of 3.1 µM and a GI50 (SF-268 [1]) of 4.7 µM. The GI50 (SF-295) was 2.5 µM, the GI50 (SNB-19) was 3.5 µM and the GI50 (LOX IMVI) was 1.1 µM. The GI50 (SK-MEL-5) was 2.2 µM, the GI50 (ACHN) was 3.4 µM and the GI50 (HT-29) was 3.7 µM. The GI50 (MDA-MB-435) was 1 µM, the GI50 (MDA-MB-231) was 2.1 µM and the GI50 (EKVX) was 6.6 µM. It also gave a GI50 (NCI-H460 [2]) of 4.1 µM, a GI50 (NCI-H522) of 7.6 µM and a GI50 (HOP-62) of 2.8 µM. For the same compound, the GI50 (NCI-H23) was 2 µM, the GI50 (NCI-H226) was 8.1 µM and the GI50 (A549) was 3.2 µM. It also gave a GI50 (NCI-H322M) of 7.4 µM, a GI50 (HOP-92) of 5.7 µM and a GI50 (UACC-257) of 5.4 µM. It also gave a Proliferation (NCI-H460 [3]) of 13%, a GI50 (KM12) of 2.6 µM and a GI50 (MCF7 [4]) of 7.6 µM. For the same compound, the GI50 (HL-60) was 2.1 µM, the GI50 (RPMI-8226) was 1 µM and the GI50 (SK-MEL-28) was 12 µM. For the same compound, the GI50 (786-0) was 3.4 µM, the GI50 (SN12C) was 5.4 µM and the GI50 (TK-10) was 11 µM. It also gave a GI50 (CAKI-1) of 2.7 µM, a GI50 (HCT-15) of 2.8 µM and a GI50 (SW-620) of 4.4 µM. It also gave a GI50 (BT-549) of 8.1 µM, a GI50 (PC-3) of 3.2 µM and a GI50 (RXF 393) of 21 µM. For the same compound, the GI50 (HCT-116) was 1.1 µM, the GI50 (Hs-578T) was 4.9 µM and the GI50 (COLO 205) was 2.2 µM. It also gave a GI50 (OVCAR-3) of 1.6 µM, a GI50 (OVCAR-5) of 3.5 µM and a GI50 (OVCAR-8) of 3.6 µM. For the same compound, the Proliferation (SF-268 [5]) was 43% and the Proliferation (MCF7 [6]) was 42%.

`O=C(O)c1ccccc1Nc1ccnc(C(F)(F)F)c1` was tested, and the Proliferation (NCI-H460 [3]) was 100%, the Proliferation (SF-268 [5]) was 102% and the Proliferation (MCF7 [6]) was 105%.
